Settings: Liquid, Vibrating tube method

Cc1ccccc1 [toluene]
Settings	mass density [kg/m3]
283.16 K, 1020 kPa	876.55
283.16 K, 5010 kPa	879.36
283.16 K, 10030 kPa	882.78
283.16 K, 15050 kPa	886.11
283.16 K, 20080 kPa	889.23
283.16 K, 25060 kPa	892.35
283.16 K, 30040 kPa	895.27
283.16 K, 35080 kPa	898.24
283.16 K, 40060 kPa	901.05
283.16 K, 45050 kPa	903.77
283.16 K, 50010 kPa	906.43
283.16 K, 55060 kPa	909.09
283.16 K, 60030 kPa	911.65
283.16 K, 65050 kPa	914.15
298.15 K, 1040 kPa	862.88
298.15 K, 5040 kPa	865.93
298.15 K, 10030 kPa	869.6
298.15 K, 15050 kPa	873.21
298.15 K, 20040 kPa	876.63
298.15 K, 25050 kPa	879.93
298.15 K, 30060 kPa	883.14
298.15 K, 35020 kPa	886.25
298.15 K, 40040 kPa	889.26
298.15 K, 45070 kPa	892.2
298.15 K, 50040 kPa	895.06
298.15 K, 55040 kPa	897.86
298.15 K, 60030 kPa	900.56
298.15 K, 65020 kPa	903.2
323.15 K, 1050 kPa	839.46
323.15 K, 5050 kPa	843.04
323.15 K, 10030 kPa	847.29
323.15 K, 15010 kPa	851.38
323.15 K, 20010 kPa	855.27
323.15 K, 25060 kPa	859.05
323.15 K, 30080 kPa	862.69
323.15 K, 35020 kPa	866.13
323.15 K, 40010 kPa	869.52
323.15 K, 45060 kPa	872.84
323.15 K, 50010 kPa	875.93
323.15 K, 55010 kPa	879.01
323.15 K, 60050 kPa	882.04
323.15 K, 65030 kPa	884.91
348.15 K, 1060 kPa	815.55
348.15 K, 5070 kPa	819.75
348.15 K, 10010 kPa	824.67
348.15 K, 15030 kPa	829.43
348.15 K, 20030 kPa	833.88
348.15 K, 25020 kPa	838.2
348.15 K, 30080 kPa	842.3
348.15 K, 35050 kPa	846.21
348.15 K, 40050 kPa	849.97
348.15 K, 45070 kPa	853.63
348.15 K, 50020 kPa	857.09
348.15 K, 55060 kPa	860.49
348.15 K, 60040 kPa	863.8
348.15 K, 65070 kPa	867
373.15 K, 1050 kPa	790.86
373.15 K, 5020 kPa	795.87
373.15 K, 10040 kPa	801.74
373.15 K, 15040 kPa	807.26
373.15 K, 20030 kPa	812.38
373.15 K, 25080 kPa	817.35
373.15 K, 30070 kPa	821.93
373.15 K, 35040 kPa	826.36
373.15 K, 40040 kPa	830.59
373.15 K, 45030 kPa	834.57
373.15 K, 50040 kPa	838.5
373.15 K, 55040 kPa	842.23
373.15 K, 60010 kPa	845.81
398.15 K, 1070 kPa	765.25
398.15 K, 5030 kPa	771.26
398.15 K, 10040 kPa	778.22
398.15 K, 15080 kPa	784.74
398.15 K, 20010 kPa	790.62
398.15 K, 25050 kPa	796.25
398.15 K, 30040 kPa	801.49
398.15 K, 35040 kPa	806.48
398.15 K, 40020 kPa	811.17
398.15 K, 45040 kPa	815.71
398.15 K, 50020 kPa	819.96
398.15 K, 55040 kPa	824.15
398.15 K, 60020 kPa	828.11
398.15 K, 65080 kPa	831.99
423.15 K, 1050 kPa	738.06
423.15 K, 5030 kPa	745.45
423.15 K, 10060 kPa	753.93
423.15 K, 15030 kPa	761.54
423.15 K, 20000 kPa	768.41
423.15 K, 25020 kPa	774.89
423.15 K, 30020 kPa	780.87
423.15 K, 35060 kPa	786.56
423.15 K, 40020 kPa	791.82
423.15 K, 45040 kPa	796.87
423.15 K, 50040 kPa	801.63
423.15 K, 55060 kPa	806.24
423.15 K, 60040 kPa	810.55
423.15 K, 65050 kPa	814.77
448.15 K, 1040 kPa	708.96
448.15 K, 5070 kPa	718.48
448.15 K, 10040 kPa	728.71
448.15 K, 15070 kPa	737.86
448.15 K, 20050 kPa	745.94
448.15 K, 25050 kPa	753.39
448.15 K, 30040 kPa	760.21
448.15 K, 35040 kPa	766.59
448.15 K, 40020 kPa	772.48
448.15 K, 45030 kPa	778.13
448.15 K, 50030 kPa	783.39
448.15 K, 55060 kPa	788.44
448.15 K, 60010 kPa	793.17
448.15 K, 65060 kPa	797.83
473.15 K, 1030 kPa	676.8
473.15 K, 5050 kPa	689.34
473.15 K, 10050 kPa	702.19
473.15 K, 15060 kPa	713.2
473.15 K, 20020 kPa	722.73
473.15 K, 25040 kPa	731.39
473.15 K, 30010 kPa	739.18
473.15 K, 35040 kPa	746.42
473.15 K, 40050 kPa	753.09
473.15 K, 45060 kPa	759.38
473.15 K, 50050 kPa	765.18
473.15 K, 55020 kPa	770.69
473.15 K, 60030 kPa	775.95
473.15 K, 65020 kPa	780.92

Reference: the NIST ThermoML archive (doi:10.1016/j.jct.2018.04.019)
